The results in this text go back to US10968222B2, “2-azabicyclo hexane JAK inhibitor compound” (THERAVANCE BIOPHARMA R&D IP, LLC, priority 2018, dated 2021).

One data set has as its target T1, ALK (Homo sapiens, UniProt Q9UM73).
T1 construct: made in house; host or cells: E. coli BL21-derived host (T7 phage) or HEK-293 cells
In words: Kinome screen, ALK. The format is binding. The settings on record: screened at 1 μM. As to the method: (§1) Compounds 1 and C-1 were screened against other kinases to evaluate their selectivity profile.
(§2) Kinase-tagged T7 phage strains were grown in parallel in 24-well blocks in an E. coli host derived from the BL21 strain. E. coli were grown to log-phase and infected with T7 phage from a frozen stock (multiplicity of infection=0.4) and incubated with shaking at 32° C. until lysis (90-150 minutes). The lysates were centrifuged (6,000×g) and filtered (0.2 μm) to remove cell debris. The remaining kinases were produced in HEK-293 cells and subsequently tagged with DNA for qPCR detection.
(§3) Streptavidin-coated magnetic beads were treated with biotinylated small molecule ligands for 30 minutes at room temperature to generate affinity resins for kinase assays. The liganded beads were blocked with excess biotin and washed with blocking buffer (SeaBlock (Pierce), 1% BSA, 0.05% Tween 20, 1 mM DTT) to remove unbound ligand and to reduce non-specific phage binding. Binding reactions were assembled by combining kinases, liganded affinity beads, and test compounds in 1× binding buffer (20% SeaBlock, 0.17×PBS, 0.05% Tween 20, 6 mM DTT). Test compounds were prepared as 40× stocks in 100% DMSO and directly diluted into the assay. All reactions were performed in polypropylene 384-well plates in a final volume of 0.04 ml. […] The kinase concentration in the eluates was measured by qPCR. […]

Another data set concerns the target T2, CSNK1D (Homo sapiens, UniProt P48730).
T2 construct: made in house; host or cells: E. coli BL21-derived host (T7 phage) or HEK-293 cells
In words: Kinome screen, CSNK1D. As to conditions: screened at 1 μM. It counts as binding. As to the method:
as §1, §2, §3

The next data set addresses T3, SRC (Homo sapiens, UniProt P12931).
T3 construct: made in house; host or cells: E. coli BL21-derived host (T7 phage) or HEK-293 cells
In words: Kinome screen, SRC. It counts as binding. As to conditions: screened at 1 μM. As to the method: as §1, §2, §3

Another data set deals with T4, VEGFR2 (Homo sapiens, UniProt P35968).
T4 construct: made in house; host or cells: E. coli BL21-derived host (T7 phage) or HEK-293 cells
In words: Kinome screen, VEGFR2. It counts as binding. The settings on record: screened at 1 μM. As to the method:
as §1, §2, §3

The target of another data set is T5, CDK2 (Homo sapiens, UniProt P24941).
T5 construct: made in house; host or cells: E. coli BL21-derived host (T7 phage) or HEK-293 cells
In words: Kinome screen, CDK2. The format is binding. The settings on record: screened at 1 μM. The method, then:
as §1, §2, §3

Data set [1] has as its system BEAS-2B human lung epithelial cells. In words: CellTiter-Glo cell viability/cytotoxicity assay. The format is cell-based. As to conditions: BEAS-2B cells; 48 h; 15% inhibition threshold. The method, then: A CellTiter-Glo luminescent cell viability/cytotoxicity assay was carried out in BEAS-2B human lung epithelial cells (ATCC) under the normal growth condition.
Cells were grown at 37° C. in a 5% CO2 humidified incubator in 50% DMEM/50% F-12 medium (Life Technologies) supplemented with 10% FBS (Hyclone), 100 U/mL penicillin, 100 μg/mL streptomycin (Life Technologies), and 2 mM GlutaMAX (Life Technologies). On day 1 of the assay, cells were seeded at a 500 cells/well density in white 384-well tissue culture plates (Corning) with 25 μL medium, and were allowed to adhere overnight in the incubator. On day 2 of the assay, 5 μL of medium containing dose-responses of test compounds was added, and incubated at 37° C. for 48 h. 30 μL of CellTiter-Glo detection solution (Promega) was subsequently added, mixed on an orbital shaker for 5 min, and incubated for additional 10 min before being read on the EnVision reader. Luminescence signals were recorded and percent DMSO control values were calculated.
For dose-response analysis, percent DMSO control data were plotted vs. compound concentrations to derive dose-response curves by line connecting each data point. The concentration at which each curve crosses the 15% inhibition threshold is defined as CC15.
For orientation: Cellular ATP, detected with luciferase, serves as a proxy for viable cell number.

The target in a further data set is T6, SLK (Homo sapiens, UniProt Q9H2G2).
T6 construct: made in house; host or cells: E. coli BL21-derived host (T7 phage) or HEK-293 cells
As to the kind of experiment: Kinome screen, SLK. The format is binding. As to conditions: screened at 1 μM. The method, then:
as §1, §2, §3

The next data set concerns the target T7, EPHB6 (Homo sapiens, UniProt O15197).
T7 construct: made in house; host or cells: E. coli BL21-derived host (T7 phage) or HEK-293 cells
As to the kind of experiment: Kinome screen, EPHB6. The format is binding. The settings on record: screened at 1 μM. The method, then:
as §1, §2, §3

The target of another data set is T8, AURKA (Homo sapiens, UniProt O14965).
T8 construct: made in house; host or cells: E. coli BL21-derived host (T7 phage) or HEK-293 cells
In words: Kinome screen, AURKA. The format is binding. The settings on record: screened at 1 μM. The method, then: as §1, §2, §3

Another data set has as its target T9, PAK4 (Homo sapiens, UniProt O96013).
T9 construct: made in house; host or cells: E. coli BL21-derived host (T7 phage) or HEK-293 cells
In words: Kinome screen, PAK4. The settings on record: screened at 1 μM. It counts as binding. As to the method: as §1, §2, §3

The next data set has as its target T10, CDK7 (Homo sapiens, UniProt P50613).
T10 construct: made in house; host or cells: E. coli BL21-derived host (T7 phage) or HEK-293 cells
In words: Kinome screen, CDK7. It counts as binding. As to conditions: screened at 1 μM. As to the method:
as §1, §2, §3

The target of a further data set is T11, PKAC-ALPHA (Homo sapiens, UniProt P17612).
T11 construct: made in house; host or cells: E. coli BL21-derived host (T7 phage) or HEK-293 cells
In words: Kinome screen, PKAC-ALPHA. The format is binding. As to conditions: screened at 1 μM. As to the method: as §1, §2, §3

Another data set addresses T12, SYK (Homo sapiens, UniProt P43405).
T12 construct: made in house; host or cells: E. coli BL21-derived host (T7 phage) or HEK-293 cells
In words: Kinome screen, SYK. The format is binding. The settings on record: screened at 1 μM. The method, then: as §1, §2, §3

In the next data set the target is T13, KIT (Homo sapiens, UniProt P10721).
T13 construct: made in house; host or cells: E. coli BL21-derived host (T7 phage) or HEK-293 cells
As to the kind of experiment: Kinome screen, KIT. The format is binding. As to conditions: screened at 1 μM. The method, then: as §1, §2, §3

In another data set the target is T14, GSK3B (Homo sapiens, UniProt P49841).
T14 construct: made in house; host or cells: E. coli BL21-derived host (T7 phage) or HEK-293 cells
In words: Kinome screen, GSK3B. The settings on record: screened at 1 μM. The format is binding. The method, then: as §1, §2, §3

The target of the next data set is T15, CDK9 (Homo sapiens, UniProt P50750).
T15 construct: made in house; host or cells: E. coli BL21-derived host (T7 phage) or HEK-293 cells
As to the kind of experiment: Kinome screen, CDK9. The format is binding. As to conditions: screened at 1 μM. As to the method:
as §1, §2, §3

For another data set, the target named is T16, CSF1R (Homo sapiens, UniProt P07333).
T16 construct: made in house; host or cells: E. coli BL21-derived host (T7 phage) or HEK-293 cells
In words: Kinome screen, CSF1R. The format is binding. The settings on record: screened at 1 μM. As to the method: as §1, §2, §3

The next data set deals with T17, PLK4 (Homo sapiens, UniProt O00444).
T17 construct: made in house; host or cells: E. coli BL21-derived host (T7 phage) or HEK-293 cells
In words: Kinome screen, PLK4. As to conditions: screened at 1 μM. It counts as binding. The method, then: as §1, §2, §3

One may read the inhibition as the change of the read-out against control, counted positive when it falls.

T8 sequence (O14965 whole entry): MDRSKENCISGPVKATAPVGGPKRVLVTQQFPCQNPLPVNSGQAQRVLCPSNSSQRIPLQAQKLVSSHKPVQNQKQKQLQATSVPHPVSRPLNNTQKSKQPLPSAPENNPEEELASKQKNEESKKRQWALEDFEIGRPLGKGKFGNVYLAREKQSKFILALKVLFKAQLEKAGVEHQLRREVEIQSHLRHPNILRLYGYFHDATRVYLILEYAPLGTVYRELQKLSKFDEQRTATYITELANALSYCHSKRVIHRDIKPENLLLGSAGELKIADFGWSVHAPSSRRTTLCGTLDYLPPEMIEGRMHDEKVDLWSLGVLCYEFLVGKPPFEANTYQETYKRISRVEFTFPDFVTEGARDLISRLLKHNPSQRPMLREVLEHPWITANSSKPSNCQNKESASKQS
T14 sequence (P49841 whole entry): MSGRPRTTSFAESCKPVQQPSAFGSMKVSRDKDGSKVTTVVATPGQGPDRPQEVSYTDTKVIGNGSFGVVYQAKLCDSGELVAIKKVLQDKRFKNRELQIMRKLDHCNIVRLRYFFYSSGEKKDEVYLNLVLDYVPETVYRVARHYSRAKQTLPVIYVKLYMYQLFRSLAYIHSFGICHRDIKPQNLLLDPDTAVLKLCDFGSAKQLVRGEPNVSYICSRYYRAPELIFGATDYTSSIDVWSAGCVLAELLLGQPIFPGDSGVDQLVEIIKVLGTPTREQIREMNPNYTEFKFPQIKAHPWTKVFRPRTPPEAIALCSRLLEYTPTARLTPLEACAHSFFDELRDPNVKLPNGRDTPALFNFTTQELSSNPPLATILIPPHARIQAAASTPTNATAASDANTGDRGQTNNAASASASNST
T1 sequence (Q9UM73 19-1620): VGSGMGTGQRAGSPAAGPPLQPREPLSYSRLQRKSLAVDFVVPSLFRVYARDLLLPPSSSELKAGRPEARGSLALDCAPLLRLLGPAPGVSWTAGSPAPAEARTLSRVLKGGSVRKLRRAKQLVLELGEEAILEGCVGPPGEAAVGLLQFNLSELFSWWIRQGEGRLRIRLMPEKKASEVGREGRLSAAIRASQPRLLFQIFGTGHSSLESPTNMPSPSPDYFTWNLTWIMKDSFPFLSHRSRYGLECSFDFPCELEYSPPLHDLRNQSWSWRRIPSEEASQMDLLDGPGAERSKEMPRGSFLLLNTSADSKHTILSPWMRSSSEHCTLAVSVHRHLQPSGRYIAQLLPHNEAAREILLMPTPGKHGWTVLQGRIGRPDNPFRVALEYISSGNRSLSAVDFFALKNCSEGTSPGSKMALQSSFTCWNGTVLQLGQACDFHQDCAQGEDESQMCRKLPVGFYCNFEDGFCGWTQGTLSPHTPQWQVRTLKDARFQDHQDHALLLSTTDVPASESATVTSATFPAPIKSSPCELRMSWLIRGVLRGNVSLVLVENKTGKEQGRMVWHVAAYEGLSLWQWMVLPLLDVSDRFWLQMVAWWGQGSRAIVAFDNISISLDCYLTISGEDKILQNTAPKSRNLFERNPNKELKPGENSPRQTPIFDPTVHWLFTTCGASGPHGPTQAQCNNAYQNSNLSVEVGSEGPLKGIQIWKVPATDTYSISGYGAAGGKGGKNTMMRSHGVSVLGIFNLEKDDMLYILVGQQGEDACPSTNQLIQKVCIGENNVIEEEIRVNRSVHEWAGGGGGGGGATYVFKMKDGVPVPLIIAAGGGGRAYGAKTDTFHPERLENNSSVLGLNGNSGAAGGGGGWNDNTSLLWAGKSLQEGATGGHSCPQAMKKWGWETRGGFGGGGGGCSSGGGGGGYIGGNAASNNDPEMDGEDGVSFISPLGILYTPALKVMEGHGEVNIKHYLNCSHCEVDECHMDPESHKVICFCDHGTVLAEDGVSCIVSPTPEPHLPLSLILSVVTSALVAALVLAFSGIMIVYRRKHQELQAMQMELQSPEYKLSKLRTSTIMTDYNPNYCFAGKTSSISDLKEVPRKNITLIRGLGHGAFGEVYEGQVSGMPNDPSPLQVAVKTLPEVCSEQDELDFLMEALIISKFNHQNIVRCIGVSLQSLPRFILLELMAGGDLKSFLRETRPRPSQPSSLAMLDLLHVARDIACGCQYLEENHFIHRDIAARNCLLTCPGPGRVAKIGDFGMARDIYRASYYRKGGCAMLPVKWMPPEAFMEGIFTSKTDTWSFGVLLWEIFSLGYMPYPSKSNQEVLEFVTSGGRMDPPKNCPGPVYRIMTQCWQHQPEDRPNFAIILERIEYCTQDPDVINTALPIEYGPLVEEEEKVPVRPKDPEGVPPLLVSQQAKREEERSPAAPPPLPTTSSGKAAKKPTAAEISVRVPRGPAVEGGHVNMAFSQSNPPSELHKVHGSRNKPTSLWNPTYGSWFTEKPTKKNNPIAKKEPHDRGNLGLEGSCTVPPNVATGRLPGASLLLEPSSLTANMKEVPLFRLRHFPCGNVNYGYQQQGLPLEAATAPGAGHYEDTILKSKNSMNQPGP
T15 sequence (P50750 whole entry): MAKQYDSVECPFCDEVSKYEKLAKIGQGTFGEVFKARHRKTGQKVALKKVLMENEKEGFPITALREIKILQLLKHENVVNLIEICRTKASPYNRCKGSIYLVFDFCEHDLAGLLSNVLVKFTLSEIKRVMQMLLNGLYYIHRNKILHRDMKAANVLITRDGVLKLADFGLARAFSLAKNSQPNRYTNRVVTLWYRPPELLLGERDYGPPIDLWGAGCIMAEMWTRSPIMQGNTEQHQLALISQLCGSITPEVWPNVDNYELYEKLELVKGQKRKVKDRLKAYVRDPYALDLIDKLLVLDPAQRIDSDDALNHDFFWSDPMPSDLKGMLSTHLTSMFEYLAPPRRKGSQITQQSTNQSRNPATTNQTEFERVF
T17 sequence (O00444 whole entry): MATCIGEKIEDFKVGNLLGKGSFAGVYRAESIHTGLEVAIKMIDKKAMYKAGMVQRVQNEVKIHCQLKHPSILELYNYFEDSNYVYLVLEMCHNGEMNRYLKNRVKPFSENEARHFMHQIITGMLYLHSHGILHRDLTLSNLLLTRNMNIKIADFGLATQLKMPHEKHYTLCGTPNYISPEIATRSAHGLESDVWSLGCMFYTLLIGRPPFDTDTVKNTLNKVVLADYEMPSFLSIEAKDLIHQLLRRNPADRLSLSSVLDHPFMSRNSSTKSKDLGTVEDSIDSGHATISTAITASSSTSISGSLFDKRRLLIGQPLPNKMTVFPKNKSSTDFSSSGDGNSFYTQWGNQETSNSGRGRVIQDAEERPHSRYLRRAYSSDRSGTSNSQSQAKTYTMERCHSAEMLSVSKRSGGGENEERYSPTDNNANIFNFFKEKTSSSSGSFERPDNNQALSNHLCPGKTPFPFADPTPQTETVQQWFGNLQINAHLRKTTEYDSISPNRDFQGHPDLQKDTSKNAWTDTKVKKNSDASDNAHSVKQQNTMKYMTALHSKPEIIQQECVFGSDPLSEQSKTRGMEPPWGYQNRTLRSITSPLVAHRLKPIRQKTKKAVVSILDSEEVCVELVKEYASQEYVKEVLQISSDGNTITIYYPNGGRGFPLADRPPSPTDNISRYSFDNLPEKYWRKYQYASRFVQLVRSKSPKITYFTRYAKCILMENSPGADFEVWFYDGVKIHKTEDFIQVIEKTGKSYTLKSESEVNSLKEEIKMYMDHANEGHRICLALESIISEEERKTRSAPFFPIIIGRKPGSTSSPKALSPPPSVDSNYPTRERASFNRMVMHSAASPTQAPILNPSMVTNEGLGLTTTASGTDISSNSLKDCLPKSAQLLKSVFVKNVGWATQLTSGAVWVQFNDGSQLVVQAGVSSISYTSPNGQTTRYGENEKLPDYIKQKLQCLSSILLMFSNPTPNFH
T16 sequence (P07333 20-972): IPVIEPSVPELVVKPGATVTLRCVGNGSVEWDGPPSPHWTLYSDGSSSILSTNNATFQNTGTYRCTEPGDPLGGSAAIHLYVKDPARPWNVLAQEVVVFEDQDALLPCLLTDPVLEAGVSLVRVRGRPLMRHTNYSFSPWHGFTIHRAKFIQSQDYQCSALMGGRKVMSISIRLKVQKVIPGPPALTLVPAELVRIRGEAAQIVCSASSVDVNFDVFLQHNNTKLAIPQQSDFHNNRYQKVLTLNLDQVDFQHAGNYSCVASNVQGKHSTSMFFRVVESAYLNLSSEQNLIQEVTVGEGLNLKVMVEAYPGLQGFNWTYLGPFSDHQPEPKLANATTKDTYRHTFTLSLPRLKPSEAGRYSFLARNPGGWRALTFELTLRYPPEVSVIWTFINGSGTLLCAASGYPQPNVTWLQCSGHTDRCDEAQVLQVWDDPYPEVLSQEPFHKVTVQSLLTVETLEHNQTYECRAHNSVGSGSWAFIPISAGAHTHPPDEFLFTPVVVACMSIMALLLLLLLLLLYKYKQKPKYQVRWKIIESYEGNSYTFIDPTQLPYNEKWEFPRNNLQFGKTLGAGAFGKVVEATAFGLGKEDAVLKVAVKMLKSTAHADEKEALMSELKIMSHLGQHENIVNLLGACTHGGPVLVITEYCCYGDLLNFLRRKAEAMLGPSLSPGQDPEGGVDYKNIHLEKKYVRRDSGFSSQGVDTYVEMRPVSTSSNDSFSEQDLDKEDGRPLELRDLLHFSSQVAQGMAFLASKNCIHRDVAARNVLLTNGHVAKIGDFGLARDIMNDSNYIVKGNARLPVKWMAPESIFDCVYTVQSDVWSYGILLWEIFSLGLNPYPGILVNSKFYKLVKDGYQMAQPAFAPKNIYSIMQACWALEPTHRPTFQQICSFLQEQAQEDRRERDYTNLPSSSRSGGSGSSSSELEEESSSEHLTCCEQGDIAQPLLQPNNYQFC
T10 sequence (P50613 whole entry): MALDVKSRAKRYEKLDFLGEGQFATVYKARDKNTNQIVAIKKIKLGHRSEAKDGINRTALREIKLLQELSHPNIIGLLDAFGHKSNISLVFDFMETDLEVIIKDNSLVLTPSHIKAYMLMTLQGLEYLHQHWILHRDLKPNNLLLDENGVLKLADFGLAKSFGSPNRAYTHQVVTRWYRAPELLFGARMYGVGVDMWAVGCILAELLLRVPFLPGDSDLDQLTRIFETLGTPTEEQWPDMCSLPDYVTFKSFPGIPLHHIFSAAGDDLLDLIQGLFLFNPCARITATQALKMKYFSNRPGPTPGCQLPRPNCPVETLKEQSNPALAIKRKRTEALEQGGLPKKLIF

As to `CCc1cc(O)c(F)cc1-c1ccc2c(-c3nc4c([nH]3)CCN(C(=O)[C@]35C[C@H]3CCN5)C4)n[nH]c2c1` [Compound C-1, ((1S,5R)-2-azabicyclo[3.1.0]hexan-1-yl)(2-(6-(2-ethyl-5-fluoro-4-hydroxyphenyl)-1H-indazol-3-yl)-1,4,6,7-tetrahydro-5H-imidazo[4,5-c]pyridin-5-yl)methanone, reference compound], the inhibition at 1 µM against ALK was determined as 87%; against CSNK1D, 66%; against SRC, 98.9%; against VEGFR2, 59%; on CDK2 it was 50%; on SLK, 99.9%. The inhibition at 1 µM came to 96.5% against EPHB6; 54% at AURKA; 89% against PAK4; 98.8% against CDK7; 55% against PKAC-ALPHA; 82% against SYK. The inhibition at 1 µM was determined as 98.5% against KIT; 52% at GSK3B; 89% at CDK9; 100% at CSF1R; 40% at PLK4. Besides, the CC15 in data set [1] turned out to be 1.58 µM. The pCC15 in [1] is 5.8.
